Test results published in patent US6518412B1, “Gene therapy approaches to supply apolipoprotein A-I agonists and their use to treat dyslipidemic disorders” (priority 1997, dated 2003).
Each block holds one compound with its values, some of them ahead of it. Where a SMILES comes first, the peptide text is derived from it. Where no end group is shown, it is not given here.

Legend:
[1] = test system: EPC/Chol (20:1) small unilamellar vesicles; test: Lipid binding by fluorescence spectroscopy
Method: The lipid binding properties of the peptides described in Section 6, supra, were tested by fluorescence measurements with labeled peptides, in the present case Tryptophane (Trp or W) or Naphtylalanine (Nal). The fluorescence spectra were recorded on a Fluoromax from Spex (Jobin-Yvon) equipped with a Xenon lamp of 150W, two monochromators (excitation and emission), a photomultiplier R-928 for detection sensitive in the red up to 850 nm and a thermoelectric magnetic stirred cell holder. Quartz Suprasil cuvettes were used for measurements in the micromolar concentration range. A device of variable slits (from 0.4 to 5 nm) allows modulation of the incident and emitted intensities according to the concentration of peptide used. The reported values are in general the average of between 2 to 4 spectra. The peptide concentration is determined by absorption spectrometry on a Philips PU 8800 using the absorption band of the Trp (∈280 nm=5,550 M^−1 cm^−1 in Tris buffer) or the Nal (∈224 nm=92,770 M^−1 cm^−1 in methanol).
Fluorescence spectra of the peptides were recorded between 290 nm and 450 nm in Tris-HCl buffer (20 mM, pH=7.5), in the presence and absence of lipidic vesicles. The small unilamellar vesicles were formed after rehydration in buffer of the lyophilized phospholipids, dispersion and tip sonification under a N2 stream. The lipids used were either Egg PC/Chol. (20:1) or POPC/Chol. (20:1). The spectra were recorded at a peptide concentration of 2 μM and at a temperature of 37° C. The fluorescence reference standard in the case of Trp was N-acetyltryptophanylamide (NATA).
Lipid binding studies were done through progressive lipidic vesicle addition to the peptide in solution at 2 μM (slits:5 nm in excitation and 1.5 nm in emission). Dilution effects were taken into account for the fluorescence intensity determination. The lipid concentrations were varied from 10 to 600 μM and the molar ratio of lipid to peptide (Ri) was varied from 5 to 300. The wavelength of excitation was set at 280 nm for both Trp and Nal.
The data were directly recorded and treated by an IBM-PC linked to the spectrofluorimeter through the DM3000F software from Spex. The spectra were corrected by substraction of the solvent contribution and by application of a coefficient given by the constructor taking into account the variation of the photomultiplier response versus the wavelength.
The fluorescence spectra of the peptides were characterized by the wavelength at their maximum of fluorescence emission and by their quantum yield compared to NATA in the case of peptides labeled with a tryptophane. The process of binding to lipids was analyzed by calculating the shift of the wavelength at the maximum of fluorescence emission, (λmax), and the variation of the relative fluorescence intensity of emission versus the lipid concentration. The relative fluorescence intensity is defined as the following ratio: (I-I0)λmax/I0λmax. I and I0 are both measured at the (λmax) corresponding to the initial free state of the peptide, i.e., without lipids. I is the intensity at a defined lipid to peptide ratio and I0 is the same parameter measured in absence of lipids. The absence of these variations is relevant of the absence of interactions of the peptides with the lipids.

[2] = target: T1, LCAT (purified from human plasma) (Homo sapiens, UniProt P04180); test: LCAT activation assay; assay type: biochemical; conditions: for LCAT activation as compared with native ApoA-I: native ApoA-I = 100% activation
T1 construct: from tissue; host or cells: human plasma
T1 sequence (P04180 25-440): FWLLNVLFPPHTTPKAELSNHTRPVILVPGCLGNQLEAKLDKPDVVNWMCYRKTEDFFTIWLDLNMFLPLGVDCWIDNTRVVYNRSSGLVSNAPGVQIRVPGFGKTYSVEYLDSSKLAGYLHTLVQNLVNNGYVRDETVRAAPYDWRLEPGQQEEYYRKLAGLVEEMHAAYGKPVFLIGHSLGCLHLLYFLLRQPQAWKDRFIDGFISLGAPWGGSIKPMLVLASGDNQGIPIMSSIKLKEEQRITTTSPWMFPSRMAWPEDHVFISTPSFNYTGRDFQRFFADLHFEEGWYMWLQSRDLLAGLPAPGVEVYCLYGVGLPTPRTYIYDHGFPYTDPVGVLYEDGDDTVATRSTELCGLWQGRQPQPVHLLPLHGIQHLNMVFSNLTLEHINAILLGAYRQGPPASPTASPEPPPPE
Method: Examples of peptides which may be encoded by the nucleotides of the present invention are listed in Table VIII which also includes peptides which are chemically synthesized. […] All of the peptides listed were analyzed in vitro for their ability to activate LCAT. In the LCAT assay, substrate vesicles (small unilamellar vesicles or “SUVs”) composed of egg phophatidylcholine or 1-Palmitoyl-2-oleyl-phosphatidylcholine (POPC) and radiolabelled cholesterol are preincubated with equivalent masses either of peptide or ApoA-I (isolated from human plasma). The reaction is initiated by addition of LCAT (purified from human plasma). Native ApoA-I, which was used as positive control, represents 100% activation activity. “Specific activity” (i.e., units of activity (LCAT activation)/unit of mass) of the peptides can be calculated as the concentration of peptide that achieves maximum LCAT activation. For example, a series of concentrations of the peptide (e.g., a limiting dilution) can be assayed to determine the “specific activity” for the peptide—the concentration which achieves maximal LCAT activation (i.e., percentage conversion of cholesterol to cholesterol ester) at a specific timepoint in the assay (e.g., 1 hr.). When plotting percentage conversion of cholesterol at, e.g., 1 hr., against the concentration of peptide used, the “specific activity” can be identified as the concentration of peptide that achieves a plateau on the plottal curve.
The vesicles used in the LCAT assay are SUVs composed of egg phosphatidylcholine (EPC) or 1-palmitoyl-2-oleyl-phosphatidylcholine (POPC) and cholesterol with a molar ratio of 20:1. To prepare a vesicle stock solution sufficient for 40 assays, 7.7 mg EPC (or 7.6 mg POPC; 10 μmol), 78 μg (0.2 μmol) 4-^14C-cholesterol, 116 μg cholesterol (0.3 μmol) are dissolved in 5 ml xylene and lyophilized. Thereafter 4 ml of assay buffer is added to the dry powder and sonicated under nitrogen atmosphere at 4° C. Sonication conditions: Branson 250 sonicator, 10 mm tip, 6.5 minutes; Assay buffer: 10 mM Tris, 0.14M NaCl, 1 mM EDTA, pH 7.4). […]

[3] = HDL cholesterol in rabbits after injection of phospholipid/peptide complex; assay type: in vivo, Male New Zealand White rabbits; conditions: for Increase in HDL Cholesterol (%): 8 mg/kg i.v. as peptide/DPPC complexes
Method: Small discoidal particles consisting of phospholipid (DPPC) and peptide 146 (SEQ ID NO:146) were prepared following the cholate dialysis method. The phospholipid was dissolved in chloroform and dried under a stream of nitrogen. The peptide was dissolved in buffer (saline) at a concentration of 1-2 mg/ml. The lipid film was redissolved in buffer containing cholate (43° C.) and the peptide solution was added at a 3-1 phospholipid/peptide ratio. The mixture was incubated overnight at 43° C. and then dialyzed at 43° C. (24 hr.), room temperature (24 hr.) and 4° C. (24 hr.), with three changes of buffer (large volumes) at temperature point. The complexes were filter sterilized (0.22μ) for injection and storage at 4° C. The particles were separated on a gel filtration column (Superose 6 HR). The position of the peak containing the particles was identified by measuring the phospholipid concentration in each fraction. From the elution volume, the Stokes radius can was determined. The concentration of peptide in the complex was determined by determining the phenylalanine content (by HPLC) following a 16 hr. acid hydrolysis. Male New Zealand White rabbits (2.5-3 kg) were injected intravenously with a dose of phospholipid/peptide complex (8 mg/kg bodyweight peptide 146 (SEQ ID NO:146) or 10 mg/kg bodyweight ApoA-I, expressed as peptide or protein content) in a single bolus injection not exceeding 10-15 ml. The animals were slightly sedated before the manipulations. Blood samples (collected on EDTA) were taken before and 5, 15, 30, 60, 240 and 1440 minutes after injection. The hematocrit (Hct) was determined for each sample. Samples were aliquoted and stored at −20° C. before analysis. Plasma Lipids. The total plasma cholesterol, plasma triglycerides and plasma phospholipids were determined enzymatically using commercially available assays according to the manufacturer's protocols (Boehringer Mannheim, Mannheim, Germany and Biomérieux, 69280, Marcy-l'étoile, France). Lipoprotein Profiles. The plasma lipoprotein profiles of the fractions obtained after the separation of the plasma into its lipoprotein fractions were determined by spinning in a sucrose density gradient. The fractions were collected and in each individual fraction the phospholipid and cholesterol content was measured enzymatically.

- λmax ([1]; Ri 0, in buffer, 2 μM): 350 nm
Compound: CC(=O)N[C@@H](Cc1c[nH]c2ccccc12)C(N)=O [NATA, N-acetyltryptophanylamide, reference compound]

- LCAT activation as compared with native ApoA-I [2]: 10%
Compound: CC(=O)N1CCC[C@H]1C(=O)N[C@H](C(=O)N[C@@H](CC(C)C)C(=O)N[C@@H](CC(=O)O)C(=O)N[C@@H](CCC(=O)O)C(=O)N[C@@H](Cc1ccccc1)C(=O)N[C@@H](CCCN=C(N)N)C(=O)N[C@@H](CCC(=O)O)C(=O)N[C@@H](CCCCN)C(=O)N[C@@H](CC(C)C)C(=O)N[C@@H](CC(N)=O)C(=O)N[C@@H](CCC(=O)O)C(=O)N[C@@H](CCC(=O)O)C(=O)N[C@@H](CC(C)C)C(=O)N[C@@H](CCC(=O)O)C(=O)N[C@@H](C)C(=O)N[C@@H](CC(C)C)C(=O)N[C@@H](CCCCN)C(=O)N[C@@H](CCC(N)=O)C(=O)N[C@@H](CCCCN)C(=O)N[C@@H](CC(C)C)C(=O)N[C@@H](CCCCN)C(N)=O)C(C)C [consensus 22-mer] (Ac-PVLDEFREKLNEELEALKQKLK-NH2)

- lipid to peptide molar ratio at which burying of the tryptophane residue is maximal ([1]; EPC/Chol (20:1) SUVs): about 100
- λmax ([1]; Ri 0, in buffer, 2 μM): 348 nm
- λmax ([1]; Ri 5): 344 nm
- λmax ([1]; Ri 10): 339 nm
- λmax ([1]; Ri 30): 328 nm
- λmax ([1]; Ri 100): 326 nm
- λmax ([1]; Ri 200): 325 nm
- lipid binding ([1]; small unilamellar vesicles): binds very effectively
Compound: PVLDLFRELWEELKQKLK* (not fully specified (N-terminus, C-terminus); printed as PVLDLFRELWEELKQKLK*; also: terminal modification marked *, not defined here) [peptide 199]

Compound: PVLELFENLLERLLDALQKKLK [peptide 146]
- Increase in HDL Cholesterol (%) ([3]; 5 min): 31.3%
- Increase in HDL Cholesterol (%) ([3]; 15 min): 60.4%
- Increase in HDL Cholesterol (%) ([3]; 60 min): 42.9%
- Increase in HDL Cholesterol (%) ([3]; 240 min, 8 mg/kg): 90%
- Increase in HDL Cholesterol (%) ([3]; 240 min, listed as Peptide 146, 8 mg/kg): 90.2%
- Increase in HDL Cholesterol (%) ([3]; 1440 min): 71.2%
- duration of the increase in cholesterol of the HDL cholesterol fractions ([3]; 8 mg/kg, apparent at 5 min following injection): approximately 24 hr

- ACTIVITY (%) LCAT ([2]; LCAT activation as compared with native human ApoA-I): 0%
Compound: PVLELFERLLEDLQKKLK [peptide 229]

- LCAT activation as compared with native ApoA-I [2]: less than 4%
Compound: peptide 18AM4: peptide ApoA-I mimic described in the literature (Corinjn et al., 1993) (EWLEAFYKKVLEKLKELF)
